The values that follow come from patent US5698528A, “Substance IT-62-B and medicinal composition containing the same” (Taiho Pharmaceutical Co., Ltd., priority 1994, dated 1997).

Molecules are shown by their SMILES. Converted amounts (≈) assume the structure as drawn.

For experiment [1], the system named is Alcaligenes faecalis IAM 1015. The experiment is described as follows: Antibacterial MIC (agar dilution). As to conditions: IAM1015, Muller-Hinton agar, 37° C., 18 hours, 10^6 cells/ml. In kind it is cell-based. The protocol: (§1) (1) Determination of antibacterial activities of the substance IT-62-B:
(§2) Minimum inhibitory concentrations (MICs) of the compound according to the present invention against various bacteria were determined in accordance with the MIC measurement method of Japan Society of Chemotherapy (see journal of Chemotherapy, Vol. 29, No. 1, pp. 76-79, 1981). More specifically, Muller-Hinton agar media (product of Difco Co.) containing the compound according to the present invention at various concentrations were used. The test organisms diluted to 10^6 cells/ml, respectively, were inoculated said test organisms having been grown on the same medium as described above.

A further experiment has as its system Bacillus cereus IFO 3001. Description: Antibacterial MIC (agar dilution). The class given is cell-based. As to conditions: IFO3001, Muller-Hinton agar, 37° C., 18 hours, 10^6 cells/ml. The protocol: as §1, §2
In experiment [2] the test system is Bacillus subtilis ATCC 6633. The experiment is described as follows: Antibacterial MIC (agar dilution). As to conditions: ATCC6633, Muller-Hinton agar, 37° C., 18 hours, 10^6 cells/ml. In kind it is cell-based. As to the method: as §1, §2
(In general: In agar dilution, organisms are placed on agar that contains the substance at set levels.)

The subject of experiment [3] is Bacillus subtilis ATCC(rec^+). Description: Antibacterial MIC (agar dilution). As to conditions: Muller-Hinton agar, 37° C., 18 hours, 10^6 cells/ml. In kind it is cell-based. As to the method:
as §1, §2

Experiment [4] concerns Bacillus subtilis ATCC(rec^-). Description: Antibacterial MIC (agar dilution). The class given is cell-based. As to conditions: Muller-Hinton agar, 37° C., 18 hours, 10^6 cells/ml. As to the method:
as §1, §2

For experiment [5], the system named is Enterococcus faecalis IFO 12968. Description: Antibacterial MIC (agar dilution). As to conditions: IFO12968, Muller-Hinton agar, 37° C., 18 hours, 10^6 cells/ml. The class given is cell-based. As to the method:
as §1, §2

Experiment [6] deals with Escherichia coli IAM 1268. The experiment is described as follows: Antibacterial MIC (agar dilution). Conditions: IAM1268, Muller-Hinton agar, 37° C., 18 hours, 10^6 cells/ml. The class given is cell-based. The protocol:
as §1, §2

In the next experiment the test system is Escherichia coli NIHJ. The experiment is described as follows: Antibacterial MIC (agar dilution). The class given is cell-based. As to conditions: Muller-Hinton agar, 37° C., 18 hours, 10^6 cells/ml. The protocol: as §1, §2
Experiment [7] concerns Klebsiella pneumoniae ATCC 29665. Description: Antibacterial MIC (agar dilution). In kind it is cell-based. As to conditions: ATCC29665, Muller-Hinton agar, 37° C., 18 hours, 10^6 cells/ml. The protocol:
as §1, §2

Experiment [8] has as its system Micrococcus luteus ATCC 10240. The experiment is described as follows: Antibacterial MIC (agar dilution). The class given is cell-based. As to conditions: ATCC10240, Muller-Hinton agar, 37° C., 18 hours, 10^6 cells/ml. The protocol:
as §1, §2

Experiment [9] has as its system Micrococcus luteus ATCC 9341. The experiment is described as follows: Antibacterial MIC (agar dilution). In kind it is cell-based. Conditions: ATCC9341, Muller-Hinton agar, 37° C., 18 hours, 10^6 cells/ml. The protocol:
as §1, §2

Experiment [10] relates to Proteus vulgaris IID OX-19. The experiment is described as follows: Antibacterial MIC (agar dilution). As to conditions: IIDOX19, Muller-Hinton agar, 37° C., 18 hours, 10^6 cells/ml. In kind it is cell-based. The protocol: as §1, §2
Experiment [11] has as its system Pseudomonas aeruginosa NCTC 10490. Description: Antibacterial MIC (agar dilution). In kind it is cell-based. As to conditions: NCTC10490, Muller-Hinton agar, 37° C., 18 hours, 10^6 cells/ml. The protocol:
as §1, §2

In experiment [12] the test system is Salmonella typhymurium G-46. The experiment is described as follows: Antibacterial MIC (agar dilution). In kind it is cell-based. Conditions: G46, Muller-Hinton agar, 37° C., 18 hours, 10^6 cells/ml. As to the method:
as §1, §2

Experiment [13] deals with Serratia marcescens IFO 12648. The experiment is described as follows: Antibacterial MIC (agar dilution). In kind it is cell-based. Conditions: IFO12648, Muller-Hinton agar, 37° C., 18 hours, 10^6 cells/ml. The protocol: as §1, §2
Experiment [14] concerns Staphylococcus aureus (MRSA)70. The experiment is described as follows: Antibacterial MIC (agar dilution). Conditions: 18 h. In kind it is cell-based. As to the method: as §1, §2
Experiment [15] has as its system Staphylococcus aureus (MRSA)92-1192. The experiment is described as follows: Antibacterial MIC (agar dilution). As to conditions: 18 h. In kind it is cell-based. The protocol:
as §1, §2

In experiment [16] the test system is Staphylococcus aureus Smith. Description: Antibacterial MIC (agar dilution). Conditions: Muller-Hinton agar, 37° C., 18 hours, 10^6 cells/ml. In kind it is cell-based. The protocol: as §1, §2
Experiment [17] relates to Staphylococcus epidermidis ATCC 12228. Description: Antibacterial MIC (agar dilution). The class given is cell-based. Conditions: ATCC12228, Muller-Hinton agar, 37° C., 18 hours, 10^6 cells/ml. The protocol: as §1, §2
For experiment [18], the system named is KB cell line derived from human nasopharyngeal carcinoma. Description: 50% inhibitory concentration against KB cell line (growth inhibition, trypan blue viable count). In kind it is cell-based. As to conditions: 72 h, incubation for 3 days, 37° C., trypan blue dye exclusion. As to the method: A. Determination of 50% inhibitory concentration against the established culture cell line derived from human nasopharyngeal carcinoma:
A 50% inhibitory concentration (IC50) of the compound according to the present invention against an established culture cell line (KB cell line) derived from human nasopharyngeal carcinoma was determined. More specifically, the KB cell line (2×10^3 cells/ml of medium) was cultured in an Eagle's minimal essential medium supplemented with a 10% calf serum, and 3 ml of this culture medium was incubated in a plastic Petri dish to incubate it at 37° C. in a CO2 -incubator (5% CO2). After overnight incubation, the compound according to the present invention was added with the compound diluted from a concentration of 1 μg/ml to a concentration of 1×10^-6 μg/ml by 10-fold dilution.

Experiment [19] has as its system murine leukemia P388 cells. Description: Survival effect against murine leukemia P388 cells implanted intraperitoneally. In kind it is in vivo, mouse (male CDF1). Conditions: 0.25 mg/kg intraperitoneally, 1 day after i.p. implantation of 1×10^6 P388 cells, male CDF1 mice. From the text: B. Survival effect against murine leukemia P388 cells implanted intraperitoneally:
The antitumor activity of the compound according to the present invention was judged by the survival effect against murine leukemia (p388 cells). The three of Male CDF1 mice (aged 6 weeks) were used as test animals for an administering group and 10 mice for an untreating control group. Murine leukemia P388 cells (1×10^6 cells) were implanted intraperitoneally in all the mice. Upon elapsed time of 1 day (the first day) after the implantation, the substance IT-62-B dissolved in a 3.5% solution of dimethyl sulfoxide in physiological saline was administered intraperitoneally to the mice of the administering group at a dose of 0.25 mg/kg so as to observe survival days of the mice. […] [formula]

What is called MIC is the least concentration at which growth counts as inhibited. What is called IC50 is the concentration needed to halve the response being measured. On to `COc1cccc2c1C(=O)c1c(O)c3c(c(O)c1C2=O)CC(O)(C(C)=O)CC3OC1CC2C(OC(CC(C)O)OC(C)C3OC(C(C)CO)C(=O)N23)C(C)O1` (stereo not drawn) [IT-62-B], for which the MIC was 12.5 µg/mL (≈ 16.2 µM) in experiment [1]; 12.5 µg/mL (≈ 16.2 µM) against Bacillus cereus IFO 3001; 3.13 µg/mL (≈ 4.07 µM) in experiment [2]; 6.25 µg/mL (≈ 8.12 µM) in experiment [3]; 0.39 µg/mL (≈ 0.507 µM) in experiment [4]; 50 µg/mL (≈ 65 µM) in [5]. The MIC in experiment [6] is 50 µg/mL (≈ 65 µM); in the experiment on Escherichia coli NIHJ, 100 µg/mL (≈ 130 µM); in experiment [7], greater than 100 µg/mL; in experiment [8], 1.56 µg/mL (≈ 2.03 µM); in [9], 3.13 µg/mL (≈ 4.07 µM); in experiment [10], greater than 100 µg/mL. The MIC in experiment [11] is greater than 100 µg/mL; in experiment [12], greater than 100 µg/mL; in [13] it was greater than 100 µg/mL; in experiment [14] it was 12.5 µg/mL (≈ 16.2 µM); in experiment [15], 12.5 µg/mL (≈ 16.2 µM); in experiment [16], 6.25 µg/mL (≈ 8.12 µM). Further, the MIC in [17] came to 25 µg/mL (≈ 32.5 µM). 0.006 µg/mL (≈ 0.00779 µM) corresponded to half-maximal inhibition in experiment [18] (IC50). In addition, the “Percent increase in survival” value in [19] is listed as 119%.
